In ChEMBL document CHEMBL3272185, “Synthesis and enzymic activity of some novel xanthine oxidase inhibitors. 3-Substituted 5,7-dihydroxypyrazolo(1,5-alpha)pyrimidines” (J Med Chem, 1976):

Assays:
[1] = target: T1, Xanthine dehydrogenase/oxidase (Bos taurus, UniProt P80457); assay: Inhibition of bovine milk xanthine oxidase using xanthine as substrate; settings: read-out: I50
[2] = target: T1, Xanthine dehydrogenase/oxidase; assay: Inhibition of bovine milk xanthine oxidase using xanthine as substrate at 10 times I50 preincubated for 1 hr at 4 degC measured after 10 fold dilution relative to control; settings: cattle
[3] = target: T1, Xanthine dehydrogenase/oxidase; assay: Inhibition of bovine milk xanthine oxidase using xanthine as substrate at 10 times I50 preincubated for 20 mins at 25 degC measured after 10 fold dilution relative to control; settings: cattle
[4] = target: T1, Xanthine dehydrogenase/oxidase; assay: Activity at bovine milk xanthine oxidase assessed as reduction of cytochrome c and phenazine methosulfate; settings: cattle
[5] = target: T1, Xanthine dehydrogenase/oxidase; assay: Activity at bovine milk xanthine oxidase assessed as reduction of 2,6-dichlorophenol-indophenol; settings: cattle
[6] = target: T1, Xanthine dehydrogenase/oxidase; assay: Non-competitive inhibition of bovine milk xanthine oxidase using hypoxanthine as substrate by Lineweaver-Burk plot analysis
[7] = target: T1, Xanthine dehydrogenase/oxidase; assay: Non-competitive inhibition of bovine milk xanthine oxidase using xanthine as substrate by Lineweaver-Burk plot analysis
[8] = target: T1, Xanthine dehydrogenase/oxidase; assay: Inhibition of bovine milk xanthine oxidase using xanthine as substrate assessed as increase of I50 at pH 6.6 to 7.6; settings: cattle
[9] = target: T1, Xanthine dehydrogenase/oxidase; assay: Inhibition of bovine milk xanthine oxidase using xanthine as substrate assessed as increase of I50 at pH 7.6 to 7.9; settings: cattle
[10] = Dissociation constant, pKa of the compound
[11] = target: T1, Xanthine dehydrogenase/oxidase; assay: Mixed-type inhibition of bovine milk xanthine oxidase using hypoxanthine as substrate by Lineweaver-Burk plot analysis
[12] = target: T1, Xanthine dehydrogenase/oxidase; assay: Mixed-type inhibition of bovine milk xanthine oxidase using xanthine as substrate by Lineweaver-Burk plot analysis
[13] = target: T1, Xanthine dehydrogenase/oxidase; assay: Inhibition of bovine milk xanthine oxidase using xanthine as substrate assessed as increase of I50 at pH 6.6 to 8.2; settings: cattle
[14] = target: T1, Xanthine dehydrogenase/oxidase; assay: Inhibition of bovine milk xanthine oxidase using xanthine as substrate assessed as increase of I50 at pH 8.2 to 8.8; settings: cattle
[15] = target: T1, Xanthine dehydrogenase/oxidase; assay: Inhibition of bovine milk xanthine oxidase using xanthine as substrate assessed as increase of I50 at pH 6.6 to 7.5; settings: cattle

T1 sequence (P80457 whole entry): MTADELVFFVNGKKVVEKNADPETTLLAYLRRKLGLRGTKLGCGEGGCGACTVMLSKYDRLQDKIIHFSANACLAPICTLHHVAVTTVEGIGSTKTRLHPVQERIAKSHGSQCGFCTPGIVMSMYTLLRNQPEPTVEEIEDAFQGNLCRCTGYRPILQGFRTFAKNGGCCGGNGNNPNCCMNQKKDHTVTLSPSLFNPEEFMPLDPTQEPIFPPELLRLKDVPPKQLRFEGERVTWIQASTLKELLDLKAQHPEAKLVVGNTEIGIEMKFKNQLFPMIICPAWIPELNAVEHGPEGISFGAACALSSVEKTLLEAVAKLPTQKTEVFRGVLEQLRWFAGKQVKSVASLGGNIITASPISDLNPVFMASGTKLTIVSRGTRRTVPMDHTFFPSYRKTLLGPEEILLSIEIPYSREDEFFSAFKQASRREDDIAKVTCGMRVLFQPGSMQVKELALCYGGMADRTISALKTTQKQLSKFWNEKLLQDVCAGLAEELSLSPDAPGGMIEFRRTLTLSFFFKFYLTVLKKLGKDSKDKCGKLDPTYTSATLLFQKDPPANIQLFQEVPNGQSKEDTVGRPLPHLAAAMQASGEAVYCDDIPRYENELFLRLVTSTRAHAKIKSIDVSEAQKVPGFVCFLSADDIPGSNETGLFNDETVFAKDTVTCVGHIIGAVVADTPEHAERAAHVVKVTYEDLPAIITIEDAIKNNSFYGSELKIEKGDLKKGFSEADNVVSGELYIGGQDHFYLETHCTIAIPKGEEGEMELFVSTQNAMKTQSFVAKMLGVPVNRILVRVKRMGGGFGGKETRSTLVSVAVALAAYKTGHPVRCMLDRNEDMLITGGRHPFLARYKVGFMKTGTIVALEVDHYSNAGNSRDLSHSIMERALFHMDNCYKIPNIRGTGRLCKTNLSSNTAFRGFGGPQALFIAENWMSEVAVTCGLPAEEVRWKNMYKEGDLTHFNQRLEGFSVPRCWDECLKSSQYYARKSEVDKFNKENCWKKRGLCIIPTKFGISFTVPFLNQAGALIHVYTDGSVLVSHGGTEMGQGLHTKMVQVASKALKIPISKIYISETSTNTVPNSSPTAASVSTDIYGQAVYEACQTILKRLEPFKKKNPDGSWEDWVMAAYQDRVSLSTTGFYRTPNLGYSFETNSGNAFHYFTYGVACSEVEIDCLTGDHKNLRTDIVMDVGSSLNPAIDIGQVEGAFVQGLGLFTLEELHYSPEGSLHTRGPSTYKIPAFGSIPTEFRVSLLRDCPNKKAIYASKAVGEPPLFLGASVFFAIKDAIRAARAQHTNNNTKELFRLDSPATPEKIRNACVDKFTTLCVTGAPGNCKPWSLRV

IC50 [1] [nM]	inhibition (INH) [2] [%]	inhibition (INH) [3] [%]	Activity [4]	Activity [5]	Ki [6] [nM]	Ki [7] [nM]	inhibition (INH) [8]	inhibition (INH) [9]	pKa [10]	Ki [11] [nM]	Ki [12] [nM]	inhibition (INH) [13]	inhibition (INH) [14]	SMILES	inhibition (INH) [15]
5000	47	49	Not Active	Not Active	4200	5400	Active	Active	3.7	–	–	–	–	Oc1cc(O)n2nccc2n1	–
15000	51	53	Not Active	Not Active	–	–	–	–	–	31000	37000	–	–	O=[N+]([O-])c1cnn2c(O)cc(O)nc12	–
1200	50	52	Not Active	Not Active	1200	1500	–	–	–	–	–	–	–	Oc1cc(O)n2ncc(Br)c2n1	–
1400	45	44	Not Active	Not Active	1800	2000	–	–	–	–	–	–	–	Oc1cc(O)n2ncc(Cl)c2n1	–
38	47	49	Not Active	Not Active	60	53	–	–	3.8	–	–	Active	Active	Oc1cc(O)n2ncc(-c3ccccc3)c2n1	–
43	50	53	Not Active	Not Active	31	26	–	–	–	–	–	–	–	Oc1cc(O)n2ncc(-c3cccnc3)c2n1	–
33	52	53	Not Active	Not Active	–	–	–	–	3.8	23	26	Active	Active	Oc1cc(O)n2ncc(-c3ccc(Br)cc3)c2n1	–
43	53	50	Not Active	Not Active	–	–	–	–	–	19	23	–	–	Oc1cc(O)n2ncc(-c3ccc(Cl)cc3)c2n1	–
89	47	48	Not Active	Not Active	–	–	–	–	–	77	85	–	–	CC(=O)Nc1ccc(-c2cnn3c(O)cc(O)nc23)cc1	–
96	55	52	Not Active	Not Active	–	–	–	–	–	24	17	–	–	Cc1ccc(-c2cnn3c(O)cc(O)nc23)cc1	–
25	50	48	Not Active	Not Active	–	–	–	–	–	19	20	–	–	Cc1cccc(-c2cnn3c(O)cc(O)nc23)c1	–
29	49	46	Not Active	Not Active	–	–	–	–	–	18	23	–	–	Oc1cc(O)n2ncc(-c3ccc4c(c3)OCO4)c2n1	–
25	46	45	Not Active	Not Active	16	13	–	–	–	–	–	–	–	Oc1cc(O)n2ncc(-c3cccc4ccccc34)c2n1	–
–	–	–	Active	Active	–	–	–	–	7.6	–	–	–	–	O=c1[nH]c(=O)c2[nH]cnc2[nH]1 [XANTHINE]	–

SMILES	IC50 [1] [nM]	inhibition (INH) [2] [%]	inhibition (INH) [3] [%]	Activity [4]	Activity [5]	Ki [6] [nM]	Ki [7] [nM]	inhibition (INH) [8]	inhibition (INH) [9]	pKa [10]	Ki [11] [nM]	Ki [12] [nM]	inhibition (INH) [13]	inhibition (INH) [14]	inhibition (INH) [15]
Oc1ncnc2[nH]ncc12 [ALLOPURINOL]	–	100	100	Active	Active	–	–	–	–	9	–	–	–	–	Active
O=c1[nH]cnc2nc[nH]c12 [HYPOXANTHINE]	–	–	–	–	–	–	–	–	–	8.7	–	–	–	–	–
